Data reported in patent US20240197890A1, “FLAVONE DERIVATIVES AND USES IN TARGETING CK2-MEDIATED DISEASES AND CONDITIONS” (Salk Institute for Biological Studies, priority 2020, published 2024).

What was measured:
[1] = test system: LPS-induced cytokine release in human iPSC-derived microglia; test: Cytokine release assay in LPS-stimulated iPSC-derived microglia; format: cell-based; settings: 20 μM, 5 hours, panel of 36 cytokines
Procedure: Cytokine release assay. […] Subsequently, media cleared of cells and debris was collected, snap-frozen and stored at -80 C until processing with the Human Cytokine Array kit (R&D Systems, Catalog #ARY005). Briefly, media was diluted in Array Buffer 4 and incubated with a cocktail of biotinylated detection antibodies for 1 h at room temperature with rocking. The resulting immunocomplexes were incubated with nitrocellulose membranes spotted with capture antibodies overnight at 4 C (see below for full list of targets). The membranes were washed 4× with Wash Buffer, then incubated with IRDye 800CW Streptavidin for 30 minutes at room temperature (1:2000 in Array Buffer 5, LI-COR #926-32230). The membranes were washed 4× and imaged with an Odyssey CLx instrument. Intensity for each spot was quantified with ImageStudio. Technical duplicate values for each target were averaged, and we determined differential cytokine release by microglia exposed to LPS+vehicle versus vehicle only (n=2 biological replicates, two-tailed t-tests, P<0.05).

[2] = test system: microglial phagocytosis of pHrodo E. coli beads; test: Microglial phagocytosis assay; format: cell-based, human; settings: 20 μM, 5 h treatment
Procedure: Phagocytosis assay. […] Then, 0.5 μl of pH rodo E. coli-FITC beads (Thermo Fisher, P35366) was added per well with gentle mixing and the cells were incubated for another 4 hours. pHrodo beads only fluoresce when they are internalized in cells. Cells were then collected by scraping, washed with FACS buffer, and counter-stained with Zombie Violet to assess viability. Live cells were analyzed on the FACS Canto instrument for geometric mean fluorescence on the FITC channel. The background FITC fluorescence value (pHrodo beads only) was subtracted from each mean, and fold-change was computed across experimental groups.

[3] = test system: IL6 and IL8 expression in astrocytes; test: Activation assay, ddPCR of cytokine expression in IL1-β-activated astrocytes; format: cell-based, human; settings: astrocytes and microglia; FIG. 1D, FIG. 2C
Procedure: Activation assays and ddPCR. HCA or H1-derived astrocytes were treated with vehicle (DMSO) or 20 μM compound and stimulated with IL1-B 10 ng/mL for 5 h. Cells were scraped into RNA-Bee and total RNA was purified using the Direct-zol RNA kit (Zymo Research). RNA concentration was measured using Nanodrop and RNA was reverse transcribed into cDNA using the High Capacity cDNA Reverse Transcriptase Kit (Applied Biosystems). Reaction mixes consisting of TaqMan FAM probe (IL6, IL8, CSNK2A1, CSNK2A2), control TaqMan ACTB-VIC probe (TFS 4326315E), ddPCR Supermix for Probes (Bio-Rad 186-3024), and cDNA were formed into oil droplets using the QX200 Droplet Generator. After amplification (Bio-Rad C1000 Touch Thermal Cycler) according to manufacturer's instructions, the plate was read in the QX200 Droplet Reader.

[4] = test system: AKT pS473; test: Immunofluorescence of AKT pS473 in IL1β-stimulated primary astrocytes; format: cell-based; settings: IL1-β for 5 h
Procedure: Immunotluorescence. […] After treatment, cells were fixed with 4% paraformaldehyde solution for 20 min at room temperature and washed 3× with DPBS for 10 min each. The cells were permeabilized using 5% horse serum and 10% Triton X in DPBS for 15 min at room temperature and blocked with 5% horse serum in PBS for 30 min at room temperature. Cells were incubated with primary antibodies in blocking buffer either overnight at 4° C. or for 2 hours at room temperature. After incubation, cells were washed 3× with PBS, blocked using 5% horse serum in PBS for 30 min at room temperature, and incubated with Cy3 red-labeled or AF488 green-labeled secondary antibodies diluted in blocking buffer for 1 hour at room temperature. The cells were washed once with PBS for 10 min, then counter-stained with DAPI. The cells were washed 3× with PBS and mounted with glass coverslips and Immu-Mount solution. Images were obtained with the Zeiss fluorescent microscope. […]

[5] = test system: LC3-II; test: LC3-II in AD patient-derived induced neurons; format: cell-based, human; settings: 24 h
Procedure: Western blotting. For drug treatment assays, cells were treated with vehicle (DMSO) or 20 μM compound and stimulated with IL1-B 10 ng/mL for 1 h, 6 h, or 24 h. Cells were dissociated with 1:1 Accutase:papain for 3 min at rt, pelleted for 5 min at 800 g, and washed twice with cold DPBS. Pellets were lysed with RIPA buffer (Sigma R0278) supplemented with Halt protease inhibitor cocktail (Thermo Fisher 78445) and clarified by centrifugation (16,000 g, 10 min, 4° C.). Protein concentration was determined by BCA assay (Thermo Fisher). Proteins were denatured in 1×LDS Buffer and 2.5% beta-mercaptoethanol (X) for 10 min at 70° C., separated on Bolt 4-12% Bis-Tris Plus polyacrylamide gels (Thermo Fisher), transferred to PVDF membranes using the iBlot 2 Dry Blotting System, and blocked with 0.1% casein-PBS (Bio-Rad) for 1 h at room temperature. The blots were incubated with primary antibodies overnight at 4° C. in PBS containing 0.1% casein and 0.2% Tween-20. […] The blots were imaged using the Odyssey CLx imaging system and blots were analyzed on the ImageStudio software (LI-COR).

COc1cc(-c2cc(=O)c3c(O)cc(O)cc3o2)ccc1O [CHR, chrysoeriol]
release of LPS-induced pro-inflammatory cytokines [1]: significantly blocked | microglial phagocytosis of pHrodo E. coli beads [2]: blocked | dose dependence of anti-inflammatory effects [3]: dose-dependent | AKT pS473 levels [4]: reduced | LC3-II (marker of autophagy/mitophagy) [5]: increased
